PMC5791972 (PLoS ONE, 2018)
Where two headings read alike, the source gives them in different places.

Experiments:
NMRI mice = test: Locomotor activity; assay type: in vivo, mouse; conditions: 0.1, 3 or 10 mg/kg PO
Description: NMRI mice were habituated to their room for at least 2 weeks after the delivery and kept under standard conditions in groups of 4–5 animals per cage. Food and water were available ad libitum.
Spontaneous motility and rearing were measured by an automated system (Coulbourn Instruments, USA). Animals were introduced into transparent square cages (40 cm length) that are equipped with 2 light barrier systems in order to monitor the movements as well as rearing behavior automatically. The movements of the animals were recorded for 30 minutes. At the end of the experiment, the animals were sacrificed via isofluorane inhalation and subsequent decapitation.

GABA transaminase = target: T1, GABA transaminase (Rattus norvegicus, UniProt P50554); test: enzyme assay; assay type: biochemical; conditions: 1.0E-06 M
T1 construct: rat brain; from tissue; host or cells: rat brain

[1] = target: carbonic anhydrase II (h) (Homo sapiens, UniProt P00918); test: biochemical; conditions: 1.0E-06 M
M1 (h) = target: T2, M1 (h) (Homo sapiens, UniProt P11229); test: biochemical; assay type: binding; conditions: 1.0E-06 M
T2 construct: host or cells: CHO cells
T2 sequence (P11229 1-460): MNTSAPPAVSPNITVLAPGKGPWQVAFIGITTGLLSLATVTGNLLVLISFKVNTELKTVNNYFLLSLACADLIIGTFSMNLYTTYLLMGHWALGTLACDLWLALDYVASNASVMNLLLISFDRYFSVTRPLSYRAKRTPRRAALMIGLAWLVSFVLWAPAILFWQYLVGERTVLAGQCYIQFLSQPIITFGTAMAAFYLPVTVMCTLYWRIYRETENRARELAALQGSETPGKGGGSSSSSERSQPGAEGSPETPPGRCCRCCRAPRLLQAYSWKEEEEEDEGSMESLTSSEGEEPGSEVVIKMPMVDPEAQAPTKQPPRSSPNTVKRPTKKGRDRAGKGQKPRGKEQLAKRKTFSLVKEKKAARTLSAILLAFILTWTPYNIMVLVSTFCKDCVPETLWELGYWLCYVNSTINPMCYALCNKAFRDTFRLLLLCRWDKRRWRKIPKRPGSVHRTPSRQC

PDE6 (non-selective) = target: T3, PDE6 (non-selective) (Bos taurus, UniProt P11541+P23439); test: enzyme assay; assay type: biochemical, bovine; conditions: 1.0E-06 M
T3 construct: PDE6 bovine [3H]cGMP; tissue Cerep (contract assay); host or cells: bovine retina
T3 sequence (P11541 2-856 limits assumed): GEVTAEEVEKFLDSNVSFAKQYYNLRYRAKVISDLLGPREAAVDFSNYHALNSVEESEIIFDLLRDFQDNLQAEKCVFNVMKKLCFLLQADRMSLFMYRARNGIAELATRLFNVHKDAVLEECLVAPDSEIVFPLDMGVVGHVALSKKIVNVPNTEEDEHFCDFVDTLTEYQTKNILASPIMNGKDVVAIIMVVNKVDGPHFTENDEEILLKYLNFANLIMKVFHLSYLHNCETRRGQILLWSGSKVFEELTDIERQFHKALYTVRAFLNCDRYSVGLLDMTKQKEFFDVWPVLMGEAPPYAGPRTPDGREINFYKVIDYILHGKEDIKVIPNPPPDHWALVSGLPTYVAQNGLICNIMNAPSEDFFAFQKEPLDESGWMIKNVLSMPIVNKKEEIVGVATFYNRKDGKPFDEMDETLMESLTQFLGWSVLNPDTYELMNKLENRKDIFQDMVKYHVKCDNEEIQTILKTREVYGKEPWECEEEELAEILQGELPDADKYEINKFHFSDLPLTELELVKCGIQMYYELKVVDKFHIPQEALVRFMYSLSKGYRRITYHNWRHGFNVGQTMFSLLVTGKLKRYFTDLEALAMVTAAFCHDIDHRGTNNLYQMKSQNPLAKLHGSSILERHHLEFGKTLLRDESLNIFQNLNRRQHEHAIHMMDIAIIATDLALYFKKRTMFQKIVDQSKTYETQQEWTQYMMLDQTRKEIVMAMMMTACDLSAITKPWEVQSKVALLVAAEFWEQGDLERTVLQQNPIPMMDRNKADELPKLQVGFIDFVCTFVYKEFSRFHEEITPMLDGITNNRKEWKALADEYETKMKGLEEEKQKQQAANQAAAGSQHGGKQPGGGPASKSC
T3 sequence (P23439 2-850 limits assumed): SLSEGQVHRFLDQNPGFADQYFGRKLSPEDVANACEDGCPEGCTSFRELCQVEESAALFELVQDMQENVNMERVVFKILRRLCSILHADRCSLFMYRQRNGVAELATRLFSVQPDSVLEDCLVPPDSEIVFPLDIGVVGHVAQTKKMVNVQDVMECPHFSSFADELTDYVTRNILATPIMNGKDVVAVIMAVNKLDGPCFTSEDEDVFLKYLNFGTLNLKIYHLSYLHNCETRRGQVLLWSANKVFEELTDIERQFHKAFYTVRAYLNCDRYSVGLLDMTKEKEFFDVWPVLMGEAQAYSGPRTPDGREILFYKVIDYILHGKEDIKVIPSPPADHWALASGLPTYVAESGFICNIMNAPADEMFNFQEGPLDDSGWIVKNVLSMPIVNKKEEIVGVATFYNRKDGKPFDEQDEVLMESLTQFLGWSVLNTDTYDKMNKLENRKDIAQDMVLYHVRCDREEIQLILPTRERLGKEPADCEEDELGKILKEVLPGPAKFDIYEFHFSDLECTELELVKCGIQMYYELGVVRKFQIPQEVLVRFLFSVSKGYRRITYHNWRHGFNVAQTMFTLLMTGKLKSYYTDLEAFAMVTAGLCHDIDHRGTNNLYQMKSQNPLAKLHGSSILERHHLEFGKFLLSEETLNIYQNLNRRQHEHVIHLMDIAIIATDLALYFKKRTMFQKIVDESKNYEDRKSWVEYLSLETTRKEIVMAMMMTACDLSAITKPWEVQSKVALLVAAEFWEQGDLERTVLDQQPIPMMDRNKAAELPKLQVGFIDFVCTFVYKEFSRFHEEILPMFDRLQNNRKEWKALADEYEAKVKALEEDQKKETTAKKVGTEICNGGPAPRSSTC

mTRPC4 = target: T4, mTRPC4 (Mus musculus, UniProt Q9QUQ5); test: Whole-cell manual patch clamp; assay type: cell-based; conditions: 10 µM carbachol /M1R
T4 construct: The cDNAs for various full-length ion channels were subcloned into pcDNA5/TO; expressed in transfected cells

[2] = system: Ca2+ channel (L, verapamil site) (phenylalkylamine); assay type: binding, rat; conditions: 1.0E-06 M

T1 sequence (P50554 28-500): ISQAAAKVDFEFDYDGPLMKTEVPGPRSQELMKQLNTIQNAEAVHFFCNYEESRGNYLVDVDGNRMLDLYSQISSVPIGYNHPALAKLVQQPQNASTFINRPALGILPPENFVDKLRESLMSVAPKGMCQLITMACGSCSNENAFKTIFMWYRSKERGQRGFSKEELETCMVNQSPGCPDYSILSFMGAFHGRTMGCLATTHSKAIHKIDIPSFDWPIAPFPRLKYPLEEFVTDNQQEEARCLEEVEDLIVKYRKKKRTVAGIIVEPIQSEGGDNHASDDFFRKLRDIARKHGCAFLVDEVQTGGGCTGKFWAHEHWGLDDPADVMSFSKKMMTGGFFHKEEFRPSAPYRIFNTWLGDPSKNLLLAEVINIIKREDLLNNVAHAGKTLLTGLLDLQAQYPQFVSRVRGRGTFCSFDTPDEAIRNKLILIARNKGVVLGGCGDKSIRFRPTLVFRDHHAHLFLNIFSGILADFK
T4 sequence (Q9QUQ5 1-890 isoform Q9QUQ5-2): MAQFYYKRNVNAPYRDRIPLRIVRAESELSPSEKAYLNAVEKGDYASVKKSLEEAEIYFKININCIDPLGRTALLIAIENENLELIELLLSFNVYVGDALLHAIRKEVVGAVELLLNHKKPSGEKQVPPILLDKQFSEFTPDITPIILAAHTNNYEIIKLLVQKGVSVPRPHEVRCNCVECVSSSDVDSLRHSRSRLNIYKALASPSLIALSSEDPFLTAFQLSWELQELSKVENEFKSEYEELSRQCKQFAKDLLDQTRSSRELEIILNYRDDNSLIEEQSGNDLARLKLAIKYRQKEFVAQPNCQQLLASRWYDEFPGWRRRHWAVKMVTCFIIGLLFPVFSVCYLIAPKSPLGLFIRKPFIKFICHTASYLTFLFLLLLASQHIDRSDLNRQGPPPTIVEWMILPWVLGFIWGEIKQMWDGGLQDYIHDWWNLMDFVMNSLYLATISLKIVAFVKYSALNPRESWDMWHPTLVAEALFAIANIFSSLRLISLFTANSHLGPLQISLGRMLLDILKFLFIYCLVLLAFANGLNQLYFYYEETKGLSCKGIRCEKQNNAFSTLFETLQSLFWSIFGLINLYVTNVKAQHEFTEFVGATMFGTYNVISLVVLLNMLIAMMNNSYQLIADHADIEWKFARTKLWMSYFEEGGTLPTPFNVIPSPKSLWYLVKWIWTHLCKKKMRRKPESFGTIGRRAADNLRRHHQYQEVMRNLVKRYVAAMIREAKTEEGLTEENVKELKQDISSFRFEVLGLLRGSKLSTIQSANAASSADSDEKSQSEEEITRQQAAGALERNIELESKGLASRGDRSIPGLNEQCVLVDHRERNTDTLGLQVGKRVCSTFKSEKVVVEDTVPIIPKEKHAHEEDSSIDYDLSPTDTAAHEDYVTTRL

SMILES	locomotor activity (NMRI mice)	inhibition at 1 µM (GABA transaminase; read-out: % Inhibition 1st)	inhibition at 1 µM (GABA transaminase; read-out: % Inhibition Mean)	inhibition at 1 µM ([1]; read-out: % Inhibition 1st)	inhibition at 1 µM ([1]; read-out: % Inhibition 2nd)	inhibition at 1 µM ([1]; read-out: % Inhibition Mean)	inhibition at 1 µM (M1 (h); read-out: % Inhibition 1st)	inhibition at 1 µM (M1 (h); read-out: % Inhibition 2nd)	inhibition at 1 µM (M1 (h); read-out: % Inhibition Mean)	inhibition at 1 µM (PDE6 (non-selective); read-out: % Inhibition 1st)	inhibition at 1 µM (PDE6 (non-selective); read-out: % Inhibition 2nd)	inhibition at 1 µM (PDE6 (non-selective); read-out: % Inhibition Mean)	IC50 (mTRPC4)	% Inhibition 1st [2]	% Inhibition 2nd [2]	% Inhibition Mean [2]
Cn1c(=O)n(CCCO)c(=O)c2c1nc(Oc1cccc(Cl)c1)n2Cc1ccc(Cl)cc1 [HC-070]	not impacted	-33.1%	-34.6%													
Cn1c(=O)n(CCCO)c(=O)c2c1nc(Oc1cccc(OC(F)(F)F)c1)n2Cc1ccc(Cl)cc1 [HC-608]				-0.9%	0.2%	-0.4%	-1.6%	5.5%	2%	25.3%	8.8%	17%	~0.45 nM	2.3%	14.5%	8.4%
